Assay results from EPA's ToxValDB 9.5 (doi:10.2903/j.efsa.2018.5229).
≈ marks a conversion by molar mass, not a printed value.

What was measured:
Chrysoperla externa = assay: LR50; higher = less toxic; settings: not reported; mortality
Typhlodromus pyri = assay: LR50; higher = less toxic; settings: not reported; mortality
Oryctolagus sp. = settings: reproduction developmental; mortality
Pimephales promelas = settings: chronic/long-term; duration: 35 days
Anas platyrhynchos = settings: acute; oral; unspecified; mortality
Rattus norvegicus = settings: oral
Daphnia magna = settings: chronic/long-term; duration: 21 days; reproduction
Canidae = settings: chronic; duration: 1 years; oral; Dog Other; body weight
Ictalurus punctatus = settings: acute; duration: 96 hours; mortality
Colinus virginianus = settings: reproduction developmental
Tagia sp. = settings: chronic/long-term; reproduction
Apis mellifera = settings: acute, mortality

In the case of `CCOC(=O)C1CC(=O)C(=C(O)C2CC2)C(=O)C1` (centres undefined) [Trinexapac-ethyl], the LR50 (Chrysoperla externa) is reported as > 400 g/ha, the LR50 (Typhlodromus pyri) is reported as > 15 g/ha and the NOAEL (Oryctolagus sp.) is reported as 60 mg/kg-day. The NOEC (Pimephales promelas) was 0.41 mg/L, the LD50 (Anas platyrhynchos) was > 2000 mg/kg-day and the LD50 (Rattus norvegicus; acute, mortality) was 4210 mg/kg-day. For the same molecule, the NOAEL (Rattus norvegicus; subchronic, duration: 90 days, body weight) was ≤ 34 mg/kg-day, the NOEC (Daphnia magna) was 2.4 mg/L and the NOAEL (Canidae) was 32 mg/kg-day. The LC50 (Ictalurus punctatus) was 35 mg/L (≈ 139 µM), the NOEL (Colinus virginianus) was 17.6 mg/kg-day and the NOEC (Tagia sp.) was 81.9 mg/kg. For the same molecule, the LD50 (Apis mellifera; dermal) was > 100 µg/piece and the LD50 (Apis mellifera; oral, unspecified) was > 83 µg/piece.
